Test [1] has as its system S. typhimurium (ATCC 14028). The test is described as follows: Colony count assays. The conditions noted are these: 30 μg/ml. The test is classed as cell-based, Salmonella typhimurium. Here is the method: Antimicrobial activity of NK-lysin peptides was assayed in cultures of S. typhimurium (ATCC 14028). The bacteria were maintained in tryptic soy broth at 3TC and were grown to the mid-logarithmic phase prior to testing. To determine the activity of NK-lysin peptides, colony count assays were carried out. Bacteria were pelleted and then re-suspended in a 10 mM sodium phosphate buffer pH 7.0 and then diluted to a density of (2×10^6 CFU ml^−1 in MHB. 50 μl of NK-lysin peptide were combined with an equal volume of bacterial culture and incubated at room temperature for 3 hours. A 1 μl sample of each culture was then diluted by 1000 (in 1 ml) and spread over MH agar plates. Colonies were counted after 24 hours at room temperature to determine the bacteria that survived.

For test [2], the system named is S. typhimurium (ATCC 14028). The test is classed as cell-based, Salmonella typhimurium. The conditions noted are these: ATCC 14028. Here is the method: Screening of NK-lysin peptides was carried out against gram-negative S. typhimurium (ATCC 14028) bacteria. Overnight cultivation of the bacteria was carried out at a temperature of 3TC. A bacterial suspension was created in 10 mM sodium phosphate buffer pH 7.0 having a density of (2×10^6 CFU ml^−1) and plated on Muller-Hinton (MH) agar plates to inoculate. After the plates were dry, antibiotics discs of various concentrations (0 to 150 μg/ml) of antibiotic or NK-lysin peptides were applied to the surface of the inoculated plates. The plates were cultured overnight at 3TC and observed for restriction of growth by determining the diameter of bacterial-free zones surrounding each disc. Ceftazidime antibiotic was employed as a positive control.

Test [3] relates to Salmonella typhimurium (ATCC 14028). Briefly: Leakage of intracellular contents (DNA/RNA release, OD 260 nm). The test is classed as cell-based. The conditions noted are these: 15 min. The protocol: The protocol of Carson et al. (Antimicrob Agents Chemother. 2002 June; 46(60:1914-20) was used with some changes to perform the assay for determining the loss of DNA/RNA. In short, 50 μl of bacteria was combined with the same volume of NK-lysin peptides at 2×MIC and then incubated at room temperature. Samples were harvested at 15, 30 and 60 minutes, diluted 1:10 and then filtered across 0.22 μm pores (Merck; Tullagreen, Ireland). The measurement of the O.D 260 nm of the filtrates was carried out over NanoDrop plate (Greiner Bio-One GmbH; Frickenhausen, Germany). The results were presented as a ratio to the original OD260 nm. 16S rRNA Amplification Two universal primer sets 341F and 534 R were used to amplify 500 bp of 16s rRNA gene of Salmonella typhimurium. The forward primer had the following sequence: 5′-CCT ACG GGA GGC AGC AG-3′ (SEQ ID NO:04), whereas the reverse primer had the following: 5′-ATT ACC GCG GCT GCT GGC-3′ (SEQ ID NO:05). PCR amplification reactions were carried out in 50 μl of overall volume with a reaction mixture comprising 50 ng template DNA, 10 pmol each primer, 0.25 U Taq DNA polymerase, 10 mM Tris-HCl (pH.9.0), […] dNTPs mix, 30 mM KCl, 1.5 mM MgCl2 in sterile nuclease-free water. […]

The test system of the next test is Rotavirus (strain SA-11). The format is cell-based. Here is the method:
Rotavirus (strain SA-11) was activated with 10 μg/mL trypsin before propagation on MA-104 cells derived from kidney cells of African […] monkey. MA-104 cells were cultivated in tissue culture flasks in the presence of less than 5% CO2 at 37° C. in Dulbecco's Minimal Essential Medium (DMEM) (Sigma-Aldrich) The DMEM included 1% antibiotic antimycotic solution and 10% heat inactivated fetal bovine serum (A5955, Sigma-Aldrich). Centrifugation of rotavirus was performed at 300×g for 5 mins in order to purify by removal of cell debris. The supernatant was utilized as a stock suspension of virus after filtration through 0.2 μm membrane. The stock virus contained 10^6-10^7 TCID50 per mL and was stored at −80° C. for future use.
In order to activate infectivity, rotavirus was placed in a solution of 10 μg/mL trypsin at 37° C. for 30 min. A 100 μl aliquot of the activated rotavirus sa-11 was mixed with and equal volume of 80 μg/ml NK-lysin peptides for a final rotavirus concentration of 1×10^6 TCID50/ml. The rotavirus and NK-lysin peptide mixture was first incubated for at 37° C. for 1 hour. Serial dilutions of rotavirus and rotavirus+peptide mixtures were prepared. Aliquots 100 μl of the 10-fold serial dilutions were then added to 96-well tissue culture plates comprising monolayers of MA-104 cells at a density of approximately 5.0×10^4 cells per well. Eight wells were used for each sample to make sure sufficient assay precision was achieved. The microplates were incubated for 5 days at 37° C. under 5% CO2 atmosphere. During the 5-day incubation, cells were monitored daily under a microscope to check for a cytopathic effect (CPE). A tissue culture infectious dose (TCID) was the infectious dose/mL of tissue culture equal to 50 percent of wells showing CPE at a specific dilution and was expressed as the TCID50 for that dilution. The highest dilutions in which 50% or higher wells were read as the TCID50.

Test [4] concerns Streptococcus mutans (isolate). The test is described as follows: Growth kinetic activity at 2×MIC. The test is classed as cell-based. The conditions noted are these: time dependent, FIG. 3B. Here is the method: (§1) The kinetic killing abilities of NK-lysin peptides were gauged in accordance with the Clinical Laboratory and Standard Institute (CLSI) broth micro-dilution technique presented by Wiegand and Hancock (2008). Mueller Hinton broth comprising 0.01% v/v acetic acid was prepared with 0.2% w/v bovine serum albumin, as above. […] The plate was then incubated at room temperature. […] A distinct triplicate was used to repeat the kinetic potential of NK-lysin peptides thrice.

Test [5] concerns Salmonella typhimurium (ATCC 14028). Briefly: Growth kinetic activity at 2×MIC. The format is cell-based. Here is the method:
as §1

The mark [6] stands for this setting: 80 μg/ml peptide, Rotavirus (SA-11).

SMILES strings stand for the structures. Residues, ends and D or L forms follow the SMILES beside them.

Turning to `CC[C@H](C)[C@H](NC(=O)[C@H](C)NC(=O)[C@H](CC(=O)O)NC(=O)[C@H](CCC(=O)O)NC(=O)[C@H](CC(=O)O)NC(=O)[C@@H]1CCCN1)C(=O)N[C@@H](CC(N)=O)C(=O)N[C@@H](CC(N)=O)C(=O)N[C@@H](C)C(=O)N[C@@H](CC(C)C)C(=O)N[C@@H](CC(N)=O)C(=O)N[C@@H](CCCCN)C(=O)N[C@H](C(=O)N[C@@H](CS)C(=O)N[C@@H](CO)C(=O)N[C@H](C(=O)NCC(=O)N[C@@H](CCCNC(=N)N)C(=O)N[C@@H](CCCNC(=N)N)C(=O)N[C@@H](CCC(N)=O)C(=O)N[C@@H](CCCNC(=N)N)C(=O)N[C@@H](CO)C(=O)N[C@H](C(=O)N[C@@H](CS)C(=O)N[C@@H](CCCCN)C(=O)N[C@@H](CCC(N)=O)C(=O)N[C@@H](CC(C)C)C(=O)N[C@@H](CC(C)C)C(=O)N[C@@H](CCCCN)C(=O)N[C@@H](CCCCN)C(=O)O)[C@@H](C)CC)[C@@H](C)O)C(C)C` [Chicken NK-lysin] (H-PDEDAINNALNKVCSTGRRQRSICKQLLKK-OH; N-terminus and C-terminus assumed), the “decrease of colony number” value in test [1] is recorded as “approximately 10 fold”. Moreover, the clear zone diameter in test [2] is listed as 23 mm. The “release of DNA/RNA (OD 260 nm), words” value in test [3] is listed as “higher activity”. In addition, in the test with Rotavirus (strain SA-11) (setting [6]), the Log10TCID50/ml is on record as 5.61 and the TCID50/ml is 4.11 × 10^5 TCID50/ml. In addition, the “% reduction” value in the test on Rotavirus (strain SA-11) (80 μg/ml peptide, versus initial titre) came out at 79%. The “inhibition of infection / infectivity” value with Rotavirus (strain SA-11) (Rotavirus (strain SA-11)) was determined as 80%. For the same compound, the “kinetic activity compared between peptides” value in test [4] is listed as “more potent activity than bovine or human NK-lysin peptides”. Also, the “growth inhibition” value in test [5] (2×MIC, after 4 hr of incubation) was “Complete inhibition”. Further, the “lethality” value in test [5] (1 hr after treatment) is recorded as “high lethality”.

Values taken from US20220305093A1, “NK-LYSIN PEPTIDE COMPOSITIONS AND METHODS FOR THEIR USE AS ANTIMICROBIAL/ANTIVIRAL AGENTS” (priority 2021, published 2022).
